In test [1] the test system is human peripheral blood mononuclear cells (MCP-1). The test is described as follows: SPOT-synthesized derivative screen: production of chemokine MCP-1. The format is cell-based. The following applies: Table 12, No LPS, human PBMC, peptide at ~18-24 μM; for MCP1: background subtracted 139 (HH2 derivatives), 170 (1018 derivatives), 242 (1002 and hybrid peptides) pg/ml. The essentials: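 MCP-1 was quantified by capture ELISA in cleared culture supernatants of treated human peripheral blood mononuclear cells. Cells came from heparinized volunteer blood via Ficoll gradient and were seeded at 0.75 to 1×10^6 cells/ml (37 °C, 5% CO2).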

Test [2] has as its system LPS-stimulated human peripheral blood mononuclear cells (IL1-β). The format is cell-based. Conditions: Table 12, cells stimulated with 10 ng/ml LPS; for IL1β Production: LPS alone 1313 (HH2 derivatives), 1927 (1018 derivatives), 2455 (1002 and hybrid peptides) pg/ml.
For test [3], the system named is methicillin resistant Staphylococcus aureus (MRSA) biofilm. The following applies: approximate peptide concentration […] (around 3 μg/ml); compared to untreated samples. The essentials:
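Peptide was present from inoculation onward, with bacteria seeded at 1/100 from overnight cultures into BM2 biofilm medium or Luria Broth. Crystal violet staining of surface-attached cells (A595) quantified biofilm reduction at 22–46 h. K. pneumoniae was additionally screened in a real-time Bioflux flow device for some peptides.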

Ends that are not written are not given here.

With “1018-A3: single substituted 1018 peptide (VRAIVAVRIWRR-NH2) [Peptide 1018-A3]”, in test [1], the “Fold increase in MCP1 cf. untreated cells” value (“Fold increase” for short) came to 0.4 and the “MCP1” value is -110 pg/mL. In test [2], the “Fold change in IL1β relative to no peptide LPS stimulated cells” value was 0.57 and the “IL1β Production” value came out at 748 pg/mL. Moreover, in test [3], the “% Biofilm inhibition” value was found to be 49%.
Turning to “1018-A4: single substituted 1018 peptide (VRLAVAVRIWRR-NH2) [Peptide 1018-A4]”, in test [1], the “Fold increase” value is recorded as 0.5 and the “MCP1” value is -88 pg/mL. In test [2], the “Fold change in IL1β relative to no peptide LPS stimulated cells” value is recorded as 0.40 and the “IL1β Production” value is 521 pg/mL. The “% Biofilm inhibition” value in test [3] is listed as 38%.
For “1018-A5: single substituted 1018 peptide (VRLIAAVRIWRR-NH2) [Peptide 1018-A5]”, in test [1], the “Fold increase” value was 1.3 and the “MCP1” value worked out at 57 pg/mL. Further, in test [2], the “Fold change in IL1β relative to no peptide LPS stimulated cells” value came out at 0.57 and the “IL1β Production” value stood at 752 pg/mL. Besides, the “% Biofilm inhibition” value in test [3] worked out at 54%.
As to “1018-A7: single substituted 1018 peptide (VRLIVAARIWRR-NH2) [Peptide 1018-A7]”, in test [1], the “Fold increase” value turned out to be 0.5 and the “MCP1” value is -88 pg/mL. In test [2], the “Fold change in IL1β relative to no peptide LPS stimulated cells” value was found to be 0.68 and the “IL1β Production” value is 891 pg/mL. The “% Biofilm inhibition” value in test [3] was found to be 52%.
As for “1018-A8: single substituted 1018 peptide (VRLIVAVAIWRR-NH2) [Peptide 1018-A8]”, in test [1], the “Fold increase” value worked out at 3.7 and the “MCP1” value came out at 460 pg/mL. Moreover, in test [2], the “Fold change in IL1β relative to no peptide LPS stimulated cells” value came to 0.10 and the “IL1β Production” value came to 127 pg/mL. Also, in test [3], the “% Biofilm inhibition” value is on record as 60%.
Consider “1018-A9: single substituted 1018 peptide (VRLIVAVRAWRR-NH2) [Peptide 1018-A9]”, for which, in test [1], the “Fold increase” value came to 0.5 and the “MCP1” value is -88 pg/mL. Moreover, in test [2], the “Fold change in IL1β relative to no peptide LPS stimulated cells” value came to 0.90 and the “IL1β Production” value was found to be 1176 pg/mL. Moreover, in test [3], the “% Biofilm inhibition” value came to 49%.
As to “1018-A10: single substituted 1018 peptide (VRLIVAVRIARR-NH2) [Peptide 1018-A10]”, in test [1], the “Fold increase” value was found to be 1.0 and the “MCP1” value was 7 pg/mL. Besides, in test [2], the “Fold change in IL1β relative to no peptide LPS stimulated cells” value stood at 0.28 and the “IL1β Production” value is 369 pg/mL. Further, the “% Biofilm inhibition” value in test [3] is 54%.
On to “1018-A11: single substituted 1018 peptide (VRLIVAVRIWAR-NH2) [Peptide 1018-A11]”, for which, in test [1], the “Fold increase” value turned out to be 0.6 and the “MCP1” value is -65 pg/mL. Also, in test [2], the “Fold change in IL1β relative to no peptide LPS stimulated cells” value was 0.87 and the “IL1β Production” value came out at 1148 pg/mL. In addition, in test [3], the “% Biofilm inhibition” value is 59%.
Taken in the same sequence, the figures for “1018-G1: single substituted 1018 peptide (GRLIVAVRIWRR-NH2) [Peptide 1018-G1]” were 216, 36611 pg/mL, 0.10, 127 pg/mL and 38%.
Taken in the same sequence, the figures for “1018-G2: single substituted 1018 peptide (VGLIVAVRIWRR-NH2) [Peptide 1018-G2]” were 2.6, 267 pg/mL, 0.10, 127 pg/mL and 59%.
Regarding “1018-G3: single substituted 1018 peptide (VRGIVAVRIWRR-NH2) [Peptide 1018-G3]”, in test [1], the “Fold increase” value stood at 1.5 and the “MCP1” value was found to be 83 pg/mL. In addition, in test [2], the “Fold change in IL1β relative to no peptide LPS stimulated cells” value worked out at 0.57 and the “IL1β Production” value was 748 pg/mL. Besides, the “% Biofilm inhibition” value in test [3] worked out at 42%.
For “1018-G4: single substituted 1018 peptide (VRLGVAVRIWRR-NH2) [Peptide 1018-G4]”, in test [1], the “Fold increase” value worked out at 1.2 and the “MCP1” value came to 32 pg/mL. Also, in test [2], the “Fold change in IL1β relative to no peptide LPS stimulated cells” value stood at 0.39 and the “IL1β Production” value was determined as 511 pg/mL. Moreover, the “% Biofilm inhibition” value in test [3] is recorded as 63%.
As to “1018-G5: single substituted 1018 peptide (VRLIGAVRIWRR-NH2) [Peptide 1018-G5]”, in test [1], the “Fold increase” value came out at 13 and the “MCP1” value turned out to be 2090 pg/mL. In test [2], the “Fold change in IL1β relative to no peptide LPS stimulated cells” value worked out at 1.23 and the “IL1β Production” value is 1620 pg/mL. Further, the “% Biofilm inhibition” value in test [3] stood at 38%.
Take “1018-G6: single substituted 1018 peptide (VRLIVGVRIWRR-NH2) [Peptide 1018-G6]”: in test [1], the “Fold increase” value worked out at 22 and the “MCP1” value was 3560 pg/mL. Also, in test [2], the “Fold change in IL1β relative to no peptide LPS stimulated cells” value came out at 0.46 and the “IL1β Production” value turned out to be 598 pg/mL. Further, the “% Biofilm inhibition” value in test [3] is 36%.
“1018-G7: single substituted 1018 peptide (VRLIVAGRIWRR-NH2) [Peptide 1018-G7]”: in test [1], the “Fold increase” value amounted to 25 and the “MCP1” value stood at 4098 pg/mL. Moreover, in test [2], the “Fold change in IL1β relative to no peptide LPS stimulated cells” value was 1.23 and the “IL1β Production” value was 1610 pg/mL. Further, in test [3], the “% Biofilm inhibition” value is listed as 47%.
In the case of “1018-G8: single substituted 1018 peptide (VRLIVAVGIWRR-NH2) [Peptide 1018-G8]”, in test [1], the “Fold increase” value worked out at 1.3 and the “MCP1” value is 57 pg/mL. For the same substance, in test [2], the “Fold change in IL1β relative to no peptide LPS stimulated cells” value was 0.10 and the “IL1β Production” value was found to be 127 pg/mL. Also, the “% Biofilm inhibition” value in test [3] is recorded as 54%.
In the case of “1018-G9: single substituted 1018 peptide (VRLIVAVRGWRR-NH2) [Peptide 1018-G9]”, in test [1], the “Fold increase” value came to 0.9 and the “MCP1” value was -17 pg/mL. For the same substance, in test [2], the “Fold change in IL1β relative to no peptide LPS stimulated cells” value amounted to 1.13 and the “IL1β Production” value worked out at 1481 pg/mL. Also, the “% Biofilm inhibition” value in test [3] stood at 67%.
The like results for “1018-G10: single substituted 1018 peptide (VRLIVAVRIGRR-NH2) [Peptide 1018-G10]” were, in that order, 0.8, -41 pg/mL, 0.46, 605 pg/mL and 55%.
As to “1018-G11: single substituted 1018 peptide (VRLIVAVRIWGR-NH2) [Peptide 1018-G11]”, in test [1], the “Fold increase” value was 48 and the “MCP1” value is 7922 pg/mL. Further, in test [2], the “Fold change in IL1β relative to no peptide LPS stimulated cells” value was 0.91 and the “IL1β Production” value was determined as 1189 pg/mL. Besides, the “% Biofilm inhibition” value in test [3] is 40%.

For the origin of these results see patent US20190315823A1, “SMALL CATIONIC ANTI-BIOFILM AND IDR PEPTIDES” (priority 2013, published 2019).
